Molecules are shown by their SMILES.

The values below come from patent US8865731B2, “Inhibitor of analgesic tolerance” (Kyowa Hakko Kirin Co., Ltd., priority 2008, dated 2014).

For one data set, the system named is adenosine A2A receptor. As to conditions: known from the literature (Eur. J. Pharmacol., 1994, 267(3), 335 and others); cited from earlier work.
In data set [1] the test system is Male ddY mice. The data set is described as follows: Suppressing activity on morphine-induced constipation (number of fecal pellets). It counts as in vivo. To be noted: for number of fecal pellets: FIG. 2. On the procedure:
Food and water were provided ad libitum. At the time of collection of fecal pellets, food and water were not provided.
Morphine was dissolved in physiological saline at a concentration of 0.3 mg/mL and subcutaneously administered at a dose of 3 mg/kg.
On the day of the test, the tails of the mice were numbered for identification, and the body weight of each mouse was measured. On the basis of the measured body weight, 0.5% MC or Compound (IA) was orally administered. At 30 minutes after administration of 0.5% MC or Compound (IA), physiological saline or morphine was subcutaneously administered, and collection of fecal pellets was started. The fecal pellets were collected at 3 hours after administration of morphine. The amount of feces was evaluated by counting the number of the fecal pellets.

In data set [2] the test system is Male ddY mice. The data set is described as follows: Suppressing activity on morphine analgesic tolerance (hot plate method, response latency). Type of data set: in vivo. To be noted: for ΔChange (Latency at each time point − Pre value) 0.5 h / ΔChange (Latency at each time point − Pre value) 1 h / ΔChange (Latency at each time point − Pre value) 2 h: single morphine administration group: morphine 6 mg/kg s.c. only on day 7.

In data set [3] the test system is Male ddY mice. The data set is described as follows: Suppressing activity on oxycodone analgesic tolerance (hot plate method, response latency). To be noted: for Latency (sec) Pre value (before drug administration on last day) / ΔChange (Latency at each time point − Pre value) 0.5 h / ΔChange (Latency at each time point − Pre value) 1 h / ΔChange (Latency at each time point − Pre value) 2 h: Table 6.

Data set [4] relates to Male ddY mice. The data set is described as follows: Suppressing activity on morphine analgesic tolerance (hot plate method, response latency). Type of data set: in vivo. To be noted: for ΔChange (Latency at each time point − Pre value) 0.5 h / ΔChange (Latency at each time point − Pre value) 1 h / ΔChange (Latency at each time point − Pre value) 2 h: Table 3; for ΔChange (Latency at each time point − Pre value) 0.5 h: day 7, 0.5 h; for ΔChange (Latency at each time point − Pre value) 1 h: day 7, 1 h; for ΔChange (Latency at each time point − Pre value) 2 h: day 7, 2 h; for development of analgesic tolerance (response latency) / effect on the response latency: Test Example 4; for development of analgesic tolerance (response latency): compound 10 mg/kg p.o. 30 min before each morphine 6 mg/kg s.c. On the procedure: (§1) Food and water were provided ad libitum.
(§2) Morphine was dissolved in physiological saline at a concentration of 0.6 mg/mL and subcutaneously administered at a dose of 6 mg/kg.
as §1, §2
The effect of Compounds (IC) and (ID) on morphine analgesic tolerance was studied. The experiment was performed in the same manner as in Test Example 3. Compounds (IC) and (ID) were used at a dose of 10 mg/kg, respectively.

Where [5] appears, read: compound 10 mg/kg p.o. repeatedly administered alone.
Where [6] appears, read: repeated combination group: compound 10 mg/kg p.o. 30 min before each morphine 6 mg/kg s.c., 7 days.

As for `CCCn1c(=O)c2c(nc(/C=C/c3ccc(OC)c(OC)c3)n2C)n(CCC)c1=O` [Compound (IA)], in the data set on adenosine A2A receptor, the “adenosine A2A receptor antagonistic activity” value was “potent and selective”. Moreover, in the data set with Male ddY mice [1] (Compound (IA) 10 mg/kg p.o. 30 min before morphine 3 mg/kg s.c., 3 hours, vs morphine administration group), the “number of fecal pellets” value is reported as “significantly increased”. Besides, the diarrhea result is on record as “diarrhea was not induced” in the data set with Male ddY mice [1] (combination: Compound (IA) 10 mg/kg p.o. and morphine 3 mg/kg s.c.); “diarrhea was not induced” in the data set with Male ddY mice [1] (only Compound (IA) 10 mg/kg p.o. administered). Besides, the “development of analgesic tolerance (response latency)” value (“development of analgesic tolerance” below) with Male ddY mice [2] (Test Example 1, FIG. 1, Compound (IA) 10 mg/kg p.o. 30 min before morphine 6 mg/kg s.c., repeated 7 days) is “the development of analgesic tolerance was prevented”; with Male ddY mice [3] (Test Example 7, Compound (IA) 10 mg/kg p.o. 30 min before oxycodone 20 mg/kg p.o., 4 days), “the development of analgesic tolerance was prevented”. The “effect on the response latency” value in the data set on Male ddY mice [2] (Test Example 1, FIG. 1, Compound (IA) 10 mg/kg p.o. repeatedly administered alone) is “the effect on the response latency was not observed”; with Male ddY mice [3] (Test Example 7, Compound (IA) 10 mg/kg p.o. repeatedly administered alone) it was “the effect on the response latency was not observed”. Further, the “Latency (sec) Pre value (before drug administration on last day)” value in the data set on Male ddY mice [3] (Compound (IA) 10 mg/kg p.o. repeatedly administered alone, day 4) is 11.9 ± 1.2 s; with Male ddY mice [3] (repeated combination group: Compound (IA) 10 mg/kg p.o. 30 min before oxycodone 20 mg/kg p.o., 4 days, day 4), 11.9 ± 0.7 s. Also, the “ΔChange (Latency at each time point − Pre value) 0.5 h” value in the data set on Male ddY mice [3] (Compound (IA) 10 mg/kg p.o. repeatedly administered alone, day 4, 0.5 h) was -0.2 ± 1.7 s; in the data set with Male ddY mice [3] (repeated combination group: Compound (IA) 10 mg/kg p.o. 30 min before oxycodone 20 mg/kg p.o., 4 days, day 4, 0.5 h), 13.5 ± 2.6 s. Besides, the “ΔChange (Latency at each time point − Pre value) 1 h” value in the data set on Male ddY mice [3] (Compound (IA) 10 mg/kg p.o. repeatedly administered alone, day 4, 1 h) is -0.4 ± 2.2 s; with Male ddY mice [3] (repeated combination group: Compound (IA) 10 mg/kg p.o. 30 min before oxycodone 20 mg/kg p.o., 4 days, day 4, 1 h), 6.0 ± 1.6 s. Further, the “ΔChange (Latency at each time point − Pre value) 2 h” value was -0.1 ± 2.2 s in the data set on Male ddY mice [3] (Compound (IA) 10 mg/kg p.o. repeatedly administered alone, day 4, 2 h) and 2.2 ± 1.6 s with Male ddY mice [3] (repeated combination group: Compound (IA) 10 mg/kg p.o. 30 min before oxycodone 20 mg/kg p.o., 4 days, day 4, 2 h).

For `CCn1c(=O)c2c(nc(/C=C/c3cc(OC)c(OC)c(OC)c3)n2C)n(CC)c1=O` [Compound (IC)], in the data set on Male ddY mice [4] (setting [5]), the “ΔChange (Latency at each time point − Pre value) 0.5 h” value came out at 1.0 ± 0.7 s, the “ΔChange (Latency at each time point − Pre value) 1 h” value turned out to be 3.3 ± 1.2 s, the “ΔChange (Latency at each time point − Pre value) 2 h” value was found to be 1.7 ± 0.7 s and the “effect on the response latency” value was “the effect on the response latency was not observed”. Further, in the data set with Male ddY mice [4] (setting [6]), the “ΔChange (Latency at each time point − Pre value) 0.5 h” value is 16.0 ± 1.8 s, the “ΔChange (Latency at each time point − Pre value) 1 h” value stood at 5.1 ± 1.7 s and the “ΔChange (Latency at each time point − Pre value) 2 h” value came to 0.9 ± 1.3 s. Also, the “development of analgesic tolerance” value with Male ddY mice [4] (7 days) was “the development of analgesic tolerance was prevented”.

As for `COc1ccc(/C=C/c2nc3c(c(=O)n(C)c(=O)n3C)n2C)cc1OC` [Compound (ID)], in the data set on Male ddY mice [4] (setting [5]), the “ΔChange (Latency at each time point − Pre value) 0.5 h” value worked out at 2.1 ± 0.8 s, the “ΔChange (Latency at each time point − Pre value) 1 h” value is 2.3 ± 1.3 s, the “ΔChange (Latency at each time point − Pre value) 2 h” value was determined as 2.5 ± 0.9 s and the “effect on the response latency” value is “the effect on the response latency was not observed”. For the same molecule, in the data set on Male ddY mice [4] (setting [6]), the “ΔChange (Latency at each time point − Pre value) 0.5 h” value came to 14.3 ± 1.7 s, the “ΔChange (Latency at each time point − Pre value) 1 h” value is 5.1 ± 1.3 s and the “ΔChange (Latency at each time point − Pre value) 2 h” value was -0.1 ± 1.4 s. Moreover, the “development of analgesic tolerance” value with Male ddY mice [4] (7 days) is listed as “the development of analgesic tolerance was prevented”.

Take `CN1CC[C@]23c4c5ccc(O)c4O[C@H]2[C@@H](O)C=C[C@H]3[C@H]1C5` [morphine, reference compound]: in the data set with Male ddY mice [1] (morphine 3 mg/kg s.c., pellets collected 3 hours after administration, vs normal group), the “number of fecal pellets” value is recorded as “significantly decreased”. In addition, the “ΔChange (Latency at each time point − Pre value) 0.5 h” value was 21.9 ± 1.9 s with Male ddY mice [2] (Table 1); 20.2 ± 1.9 ^ sec in the data set with Male ddY mice [2] (Table 2); 19.5 ± 2.0 s with Male ddY mice [2] (Table 3); 16.8 ± 2.7 s in the data set with Male ddY mice [2] (Table 4); 18.0 ± 2.2 s in the data set on Male ddY mice [2] (Table 5). Besides, the “ΔChange (Latency at each time point − Pre value) 1 h” value in the data set with Male ddY mice [2] (Table 1) is 11.8 ± 1.1 s; with Male ddY mice [2] (Table 2), 6.3 ± 1.7 s; in the data set with Male ddY mice [2] (Table 3), 6.4 ± 1.5 s; with Male ddY mice [2] (Table 4), 10.4 ± 2.2 s; with Male ddY mice [2] (Table 5), 6.8 ± 1.3 s. The “ΔChange (Latency at each time point − Pre value) 2 h” value in the data set with Male ddY mice [2] (Table 1) was 2.9 ± 0.9 s; in the data set with Male ddY mice [2] (Table 2) it was 2.3 ± 0.5 s; in the data set on Male ddY mice [2] (Table 3), -0.8 ± 1.5 s; in the data set with Male ddY mice [2] (Table 4), 8.8 ± 0.6 s; with Male ddY mice [2] (Table 5), 1.9 ± 1.0 s. Further, the “development of analgesic tolerance” value was “the development of analgesic tolerance was observed” in the data set on Male ddY mice [2] (Test Example 1, FIG. 1, morphine 6 mg/kg s.c. repeatedly for 7 days vs single morphine administration group); “the development of analgesic tolerance was observed” in the data set with Male ddY mice [2] (Test Example 3, morphine 6 mg/kg s.c. repeatedly for 7 days vs single morphine administration group); “the development of analgesic tolerance was observed” in the data set with Male ddY mice [2] (Test Example 4, morphine 6 mg/kg s.c. repeatedly for 7 days vs single morphine administration group); “the development of analgesic tolerance was observed” with Male ddY mice [2] (Test Example 5, morphine 6 mg/kg s.c. repeatedly for 7 days vs single morphine administration group); “the development of analgesic tolerance was observed” with Male ddY mice [2] (Test Example 6, morphine 6 mg/kg s.c. repeatedly for 7 days vs single morphine administration group).

Regarding `COc1ccc2c3c1O[C@H]1C(=O)CC[C@@]4(O)[C@@H](C2)N(C)CC[C@]314` [oxycodone, reference compound], the “Latency (sec) Pre value (before drug administration on last day)” value in the data set on Male ddY mice [3] (repeated oxycodone administration group: oxycodone 20 mg/kg p.o. twice a day, 4 days, day 4) came out at 12.4 ± 1.1 s; in the data set on Male ddY mice [3] (single oxycodone administration group: distilled water twice a day 3 days, oxycodone 20 mg/kg p.o. only on day 4), 11.7 ± 1.0 s. Also, the “ΔChange (Latency at each time point − Pre value) 0.5 h” value in the data set with Male ddY mice [3] (repeated oxycodone administration group: oxycodone 20 mg/kg p.o. twice a day, 4 days, day 4, 0.5 h) was found to be 5.9 ± 3.4 s; with Male ddY mice [3] (single oxycodone administration group: oxycodone 20 mg/kg p.o. only on day 4, 0.5 h) it was 17.5 ± 4.2 s. Further, the “ΔChange (Latency at each time point − Pre value) 1 h” value with Male ddY mice [3] (repeated oxycodone administration group: oxycodone 20 mg/kg p.o. twice a day, 4 days, day 4, 1 h) was 2.7 ± 2.3 s; in the data set on Male ddY mice [3] (single oxycodone administration group: oxycodone 20 mg/kg p.o. only on day 4, 1 h) it was 11.8 ± 2.0 s. For the same molecule, the “ΔChange (Latency at each time point − Pre value) 2 h” value in the data set with Male ddY mice [3] (repeated oxycodone administration group: oxycodone 20 mg/kg p.o. twice a day, 4 days, day 4, 2 h) worked out at 0.1 ± 1.3 s; in the data set with Male ddY mice [3] (single oxycodone administration group: oxycodone 20 mg/kg p.o. only on day 4, 2 h), 6.9 ± 2.4 s. Moreover, the “development of analgesic tolerance” value in the data set with Male ddY mice [3] (Test Example 7, oxycodone 20 mg/kg p.o. repeatedly for 4 days vs single oxycodone administration group) is on record as “the development of analgesic tolerance was observed”.
